Legend:
[1] = system: VCaP CRPC xenograft; assay: VCaP CRPC mouse xenograft; assay type: in vivo
Protocol: In vivo efficacy studies were performed in accordance with protocols approved by the Institutional Animal Care and Use Committee (IACUC) at the University of Pennsylvania and in compliance with all regulatory standards. Four to five-week-old male NOD SCID gamma mice (Jackson Lab, 005557) were procured from Jackson Laboratory. In the VCaP experiment, 2×10^6 VCaP prostate cancer cells suspended in 80 μL of RPMI-1640 with 50% Matrigel (BD Biosciences) were implanted subcutaneously into the dorsal flank of the mice. The animals were castrated when the tumor volumes reached approximately 150 mm^3. […] Tumor growth was recorded using digital calipers and tumor volumes were estimated using the formula (π/6) (L×W^2), where L=length and W=width of tumor. Body weight during the study was also monitored. At the end of the treatment regimen the mice were sacrificed and were extracted for further analysis.
Xenograft tumor pieces were fixed in 4% of formaldehyde for 48 h and paraffin embedded. Paraffin embedded sections from the tumors of treated and untreated mice were deparaffinized, rehydrated and subjected to epitope retrieval stained with a phospho-MED1 antibody (1:4000/1:2000), anti-PSA antibody (1:1000), anti-Ki67 (1:500), or anti-cleaved caspase3 antibody (1:1000) followed by peroxidase-based detection and counterstaining with hematoxylin using the Leica Bond Rxm system. Photographs were taken on a Leica DMI6000B inverted light and fluorescent microscope with a 20× objective. images were assessed and quantified in ImageJ.
Whole blood of the xenograft bearing mice was collected with heparinized blood collecting tubes (Fisherbrand, 02-668-10), and cells were removed from plasma by centrifugation for 10 minutes at 2,000 g at 4° C. The plasma was used to detect PSA levels using the Human PSA ELBA Kit (Abeam, ab113327) following the manufacturer's protocol. In brief, we diluted the mice plasma ten time with Assay Diluent A, and LNCaP culturing media was used as a positive control. Serially diluted standards were used for quantification. 100 μL of each sample was loaded on the human PSA specific antibody coated 96-well plate in duplicates and the plate was incubated overnight at 4° C. to allow the PSA presented in samples to bind to the wells. The wells were then washed, and biotinylated anti-Human PSA antibody was added. After washing away unbound biotinylated antibody, HRP-conjugated streptavidin was added into the wells. The wells were again washed and developed with a TMB substrate solution followed by the addition of the stop solution and colorimetric measurement of the intensity at 450 nm. The concentrations of the PSA in the samples were calculated based on the standard curve.

[2] = system: enzalutamide resistant PCa cell lines; assay: Enzalutamide resistant PCa cells: immunoblot and colony formation; assay type: cell-based, human
Protocol: Prostate parental cell lines used in this study were obtained from ATCC, LNCaP-AR cells were a gift from Dr. Charles Sawyers (Memorial Sloan-Kettering Cancer Center, New York, NY), and LNCaP AR-KO cells were a gift from Dr. Dean Tang (Roswell Park Cancer Institute, Buffalo, NY). LNCaP, LNCaP-AR, 22RV1, LAPC4, DU145, PC3, and LNCaP AR-KO prostate cancer cell lines were grown in RPMI 1640 (Gibco, 11875093), and VCaP prostate cancer cell line was grown in DMEM with Glutamax (Gibco, 21013024). The medium was supplemented with 10% Fetal Bovine Serum (FBS) (HYC, SH30910.03) and 1% Penicillin Streptomycin Solution (Invitrogen, 15140122), hereto referred to as “complete media.” The immortalized benign prostate cell line RWPE-1 was grown in keratinocyte media with supplements (Thermo Fisher Scientific, 17005042). LNCaP-AR and VCaP enzalutamide-resistant cell lines were derived from enzalutamide-resistant PCa tumor xenograft as described previously. LNCaP and LAPC4 enzalutamide-resistant cell lines were generated by culturing the cells in presence of 20 μM enzalutamide for 3-4 months in vitro. Polyclonal pools of enzalutamide-resistant cells were cultured and maintained in media containing enzalutamide throughout. All experiments for enzalutamide resistant pools were done in presence of enzalutamide throughout the remainder of all experiments with these cells. The cell lines were tested negative for mycoplasma contamination and maintained in a humidified incubator at 37° C. and 5% CO2.
For the long-term colony formation assay, 10,000-50,000 cells/well in six-well plates (n=3) were seeded and treated with the required drugs/compounds or vehicle for 14 days. Media was refreshed every 4-5 days. Colonies were fixed and stained using 0.5% (w/v) crystal violet (Sigma, C0775) in 20% (v/v) methanol for 30 min, washed with distilled deionized water, and air-dried. To quantify staining, we washed the stained wells with 500 μL 10% acetic acid and using colorimetric assays determined the absorbance at 590 nm using a spectrophotometer (Synergy HT, BioTek Instruments, Vermont-USA).
Cell lysates were prepared with RIPA buffer (Boston Bioproducts, BP-115DG)-10 mM Tris-HCl pH 7.5, 1 mM EDTA, 400 mM NaCl, 0.5% NP-40 and 1 mM DTT, supplemented with protease inhibitor cocktail (Pierce, A32965) and phosphatase inhibitor (Thermo, 1861280). For immunoblotting 200 μg total protein extract was boiled in sample buffer and 15-25 μg aliquots were separated by SDS-PAGE and transferred onto Polyvinylidene Difluoride membrane (GE Healthcare, IPVH00010). The membrane was incubated for one hour in blocking buffer [Tris-buffered saline, 0.1% Tween (TBS-T), 5% nonfat dry milk followed by overnight incubation on a rocker at 4° C. with the primary antibody. […]

[3] = residual tumors, 10 mg/kg b.i.d., four weeks

CN(C)C/C=C/C(=O)Nc1ccc(C(=O)Nc2cccc(Nc3ncc(Cl)c(-c4c[nH]c5ccccc45)n3)c2)cc1 [THZ1]
systemic toxicity ([1]; 10 mg/kg b.i.d., four weeks): well tolerated with no treatment-related systemic toxicity observed | tumor p-MED1 levels ([1]; 10 mg/kg b.i.d., four weeks): significant reduction in p-MED1 levels | plasma PSA expression ([1]; 10 mg/kg b.i.d., four weeks, vs vehicle treated mice): significantly reduced | animal weight ([1]; 10 mg/kg twice daily, 4 weeks): does not affect the animal weight | tumor volume ([1]; castrated mice, 10 mg/kg b.i.d. intraperitoneally, four weeks, vs vehicle): dramatic tumor regression | tumor PSA expression (IHC) [1, 3]: loss of PSA expression | tumor apoptosis (cleaved caspase-3) [1, 3]: increased apoptosis | tumor necrosis [1, 3]: necrosis | tumor proliferative activity (KI-67) [1, 3]: reduced proliferative activity | PSA ([2]; 200 nM THZ1, 24 h): reduced PSA | apoptosis (cleaved PARP, cleaved caspase-3) ([2]; 200 nM THZ1, 24 h): increased apoptosis | p-MED1 ([2]; 200 nM THZ1, 24 h): loss of p-MED1 | growth (colony formation) ([2]; enzalutamide plus 50 nM THZ1): growth inhibition
